From PubChem BioAssay AID256 (DTP/NCI, 2004)
Values joined by “and” are separate entries in the source; they are usually repeats but may differ in a detail not shown here. Equal values may be shown once. Toxic doses and inconclusive results are not listed. The calls were made as follows: active = survival T/C of 150% or more; inactive = T/C below 125% in these data. Non-standard residues stand in square brackets, D forms with d. Residues, ends and D or L forms follow the SMILES beside them. ξ: configuration not given here. ξIva = CCC(C)(N)C(=O)O

Tested on: CD2F1 mice, L1210 leukemia ip, survival T/C
Test: NCI In Vivo Anticancer Drug Screen. Data for tumor model L1210 Leukemia (intraperitoneal) in CD2F1 (CDF1) mice
Conditions: endpoint: mean survival time, higher = longer survival
Method in brief: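 Antitumor effect is scored in animals hosting a serially transplanted tumor. Values compare compound-dosed animals against vehicle-only controls as a simple quotient.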

[1] = dose: 100.0 mg/kg/injection, schedule: Q01DX001 (ip), vehicle: saline with Tween-80
[2] = dose: 200.0 mg/kg/injection, schedule: Q01DX001 (ip), vehicle: saline with Tween-80
[3] = dose: 100.0 mg/kg/injection, schedule: Q01DX009 (ip), vehicle: saline with Tween-80
[4] = dose: 200.0 mg/kg/injection, schedule: Q01DX009 (ip), vehicle: saline with Tween-80
[5] = dose: 50.0 mg/kg/injection, schedule: Q01DX009 (ip), vehicle: acetone
[6] = dose: 100.0 mg/kg/injection, schedule: Q04DX003 (ip), vehicle: saline with Tween-80
[7] = dose: 200.0 mg/kg/injection, schedule: Q04DX003 (ip), vehicle: saline with Tween-80
[8] = dose: 400.0 mg/kg/injection, schedule: Q04DX003 (ip), vehicle: saline with Tween-80
[9] = dose: 50.0 mg/kg/injection, schedule: Q01DX009 (ip), vehicle: saline with Tween-80
[10] = dose: 100.0 mg/kg/injection, schedule: Q04DX003 (ip), vehicle: saline
[11] = dose: 200.0 mg/kg/injection, schedule: Q04DX003 (ip), vehicle: saline
[12] = dose: 400.0 mg/kg/injection, schedule: Q04DX003 (ip), vehicle: saline

Measured: T/C

c1c2c(cc3c1OCO3)CNCC2
inactive: dose: 100.0 mg/kg/injection, schedule: Q01DX001 (ip), vehicle: saline 102 % of control

CC(=O)Oc1cc(N=[N+]=[N-])c(OC(C)=O)cc1C
inactive: [1] 97 % of control | [2] 93 % of control

CCOC(=O)C1(C(=O)OCC)C(C)CC2Nc3ccccc3C(=O)N21 (centres undefined)
inactive: dose: 100.0 mg/kg/injection, schedule: Q01DX001 (ip), vehicle: Klucel (hydroxypropylcellulose) (HPC) 100 % of control | dose: 200.0 mg/kg/injection, schedule: Q01DX001 (ip), vehicle: Klucel (hydroxypropylcellulose) (HPC) 96 % of control | dose: 400.0 mg/kg/injection, schedule: Q01DX001 (ip), vehicle: Klucel (hydroxypropylcellulose) (HPC) 92 % of control

CCOC(=O)c1ccc(NCN2C(=O)CCC2=O)cc1
inactive: [3] 95 % of control | [4] 101 % of control | dose: 400.0 mg/kg/injection, schedule: Q01DX009 (ip), vehicle: saline with Tween-80 102 % of control

Nc1nc(N)c2c(n1)NCN(Cc1ccc(Cl)c(Cl)c1)C2
inactive: dose: 0.75 mg/kg/injection, schedule: Q01DX009 (ip), vehicle: water 102 % of control | dose: 1.5 mg/kg/injection, schedule: Q01DX009 (ip), vehicle: water 98 % of control | dose: 3.0 mg/kg/injection, schedule: Q01DX009 (ip), vehicle: water 102 % of control | dose: 6.0 mg/kg/injection, schedule: Q01DX009 (ip), vehicle: water 102 % of control | dose: 12.0 mg/kg/injection, schedule: Q01DX009 (ip), vehicle: water 100 % of control | dose: 24.0 mg/kg/injection, schedule: Q01DX009 (ip), vehicle: water 102 % of control | dose: 50.0 mg/kg/injection, schedule: Q01DX009 (ip), vehicle: water 94 % of control

Cc1csc(NC(=O)Nc2ccc(F)cc2[N+](=O)[O-])n1
inactive: dose: 12.5 mg/kg/injection, schedule: Q01DX009 (ip), vehicle: saline 103 % of control | dose: 25.0 mg/kg/injection, schedule: Q01DX009 (ip), vehicle: saline 112 % of control | dose: 50.0 mg/kg/injection, schedule: Q01DX009 (ip), vehicle: saline 103 % of control

CC1CCN1Cc1ccccc1 (centres undefined)
inactive: dose: 12.5 mg/kg/injection, schedule: Q01DX009 (ip), vehicle: acetone 98 % of control | dose: 25.0 mg/kg/injection, schedule: Q01DX009 (ip), vehicle: acetone 98 % of control | [5] 95 % of control

CC[PH+](CC)CC[S-].CC[PH+](CC)CC[S-].[Au+].[Au+]
inactive: dose: 2.5 mg/kg/injection, schedule: Q01DX009 (ip), vehicle: Klucel (hydroxypropylcellulose) (HPC) 102 % of control and 107 % of control | dose: 5.0 mg/kg/injection, schedule: Q01DX009 (ip), vehicle: Klucel (hydroxypropylcellulose) (HPC) 95 % of control and 106 % of control | dose: 10.0 mg/kg/injection, schedule: Q01DX009 (ip), vehicle: Klucel (hydroxypropylcellulose) (HPC) 92 % of control and 109 % of control | dose: 20.0 mg/kg/injection, schedule: Q01DX009 (ip), vehicle: Klucel (hydroxypropylcellulose) (HPC) 97 % of control and 109 % of control | dose: 40.0 mg/kg/injection, schedule: Q01DX009 (ip), vehicle: Klucel (hydroxypropylcellulose) (HPC) 89 % of control | dose: 80.0 mg/kg/injection, schedule: Q01DX009 (ip), vehicle: Klucel (hydroxypropylcellulose) (HPC) 101 % of control

O=C(O)C(O)C(O)C(O)CO.[Zn+2] (centres undefined)
inactive: dose: 6.25 mg/kg/injection, schedule: Q01DX005 (ip), vehicle: saline with Tween-80 108 % of control | dose: 12.5 mg/kg/injection, schedule: Q01DX005 (ip), vehicle: saline with Tween-80 108 % of control | dose: 12.5 mg/kg/injection, schedule: Q04DX003 (ip), vehicle: saline 95 % of control | dose: 25.0 mg/kg/injection, schedule: Q01DX005 (ip), vehicle: saline with Tween-80 103 % of control | dose: 25.0 mg/kg/injection, schedule: Q04DX003 (ip), vehicle: saline 95 % of control | dose: 50.0 mg/kg/injection, schedule: Q04DX003 (ip), vehicle: saline 101 % of control

Cc1cc(C)[nH]n1
inactive: [6] 95 % of control | [7] 93 % of control | [8] 97 % of control

C[N+](C)(C)CC(O)c1ccccc1 (centres undefined)
inactive: [9] 100 % of control | [3] 105 % of control | [6] 95 % of control | [7] 87 % of control

CCC(C)(NC(=O)CN)C(=O)O (centres undefined) (H-Gly-[ξIva]-OH)
inactive: dose: 100.0 mg/kg/injection, schedule: Q04DX002 (ip), vehicle: saline 90 % of control | dose: 200.0 mg/kg/injection, schedule: Q04DX002 (ip), vehicle: saline 93 % of control | dose: 400.0 mg/kg/injection, schedule: Q04DX002 (ip), vehicle: saline 90 % of control

C/C(=N/O)[c-]1[c-][c-][c-][c-]1.[Fe].[c-]1[c-][c-][cH-][c-]1
inactive: [9] 97 % of control | [1] 95 % of control | [3] 94 % of control | [2] 101 % of control

O=[N+]([O-])c1ccc(Cl)c2ncccc12
inactive: [6] 101 % of control | [7] 104 % of control

O=[N+]([O-])O.[Ho]
inactive: dose: 100.0 mg/kg/injection, schedule: Q01DX009 (ip), vehicle: saline 94 % of control

NNc1nc2c(=O)[nH]cnc2n1C1OC(CO)C(O)C1O (centres undefined)
inactive: dose: 12.5 mg/kg/injection, schedule: Q01DX005 (ip), vehicle: distilled water + Tween-80 98 % of control | dose: 25.0 mg/kg/injection, schedule: Q01DX005 (ip), vehicle: distilled water + Tween-80 98 % of control | dose: 50.0 mg/kg/injection, schedule: Q01DX005 (ip), vehicle: distilled water + Tween-80 100 % of control | dose: 100.0 mg/kg/injection, schedule: Q01DX005 (ip), vehicle: distilled water + Tween-80 107 % of control | dose: 200.0 mg/kg/injection, schedule: Q01DX005 (ip), vehicle: distilled water + Tween-80 104 % of control

O=C(Nc1ccc2c3c(ccc(C(=O)O)c13)CC2)c1ccccc1
inactive: [6] 97 % of control | [7] 95 % of control | [8] 104 % of control

CCOC(=O)N1Cc2cc3ccc(OC)cc3nc2C1
inactive: [1] 98 % of control | [2] 101 % of control | dose: 400.0 mg/kg/injection, schedule: Q01DX001 (ip), vehicle: saline with Tween-80 103 % of control

COC12C(COC(=O)NCCO)C3=C(C(=O)C(C)=C(N)C3=O)N1CC1NC12 (centres undefined)
inactive: dose: 1.56 mg/kg/injection, schedule: Q01DX009 (ip), vehicle: Klucel (hydroxypropylcellulose) (HPC) 112 % of control | dose: 3.12 mg/kg/injection, schedule: Q01DX009 (ip), vehicle: Klucel (hydroxypropylcellulose) (HPC) 114 % of control and 106 % of control | dose: 6.25 mg/kg/injection, schedule: Q01DX009 (ip), vehicle: Klucel (hydroxypropylcellulose) (HPC) 115 % of control and 120 % of control | dose: 12.5 mg/kg/injection, schedule: Q01DX009 (ip), vehicle: Klucel (hydroxypropylcellulose) (HPC) 115 % of control | dose: 50.0 mg/kg/injection, schedule: Q01DX009 (ip), vehicle: Klucel (hydroxypropylcellulose) (HPC) 114 % of control | dose: 222.0 mg/kg/injection, schedule: Q01DX001 (ip), vehicle: carboxymethylcellulose (CMC) 89 % of control

CCCC(C)C/C(C)=C/C(C)(C)C(CC(=O)N1CCOCC1)C(=O)O (centres undefined)
inactive: [9] 95 % of control | [3] 93 % of control | [6] 100 % of control | [7] 98 % of control

CC(C)=CCNc1ncnc2c1ncn2C1OC(CO)C(O)C1O (centres undefined)
inactive: [3] 95 % of control | [6] 91 % of control | [7] 101 % of control | [8] 100 % of control

COc1ccc(CC(N)C(=O)NC2C(CO)OC(n3cnc4c(N)ncnc43)C2O)cc1 (centres undefined)
inactive: dose: 75.0 mg/kg/injection, schedule: Q01DX001 (ip), vehicle: saline 100 % of control | dose: 150.0 mg/kg/injection, schedule: Q01DX001 (ip), vehicle: saline 95 % of control | dose: 300.0 mg/kg/injection, schedule: Q01DX001 (ip), vehicle: saline 100 % of control

CCOC(=O)CCC1(CCC(=O)OCC)OCCO1
inactive: [6] 93 % of control | [10] 100 % of control | [7] 98 % of control | [11] 96 % of control | [8] 98 % of control | [12] 100 % of control

C=CC(=C)CCC=C(C)C
inactive: [5] 96 % of control | dose: 100.0 mg/kg/injection, schedule: Q01DX009 (ip), vehicle: acetone 91 % of control | dose: 200.0 mg/kg/injection, schedule: Q01DX009 (ip), vehicle: acetone 96 % of control

CC1(C)CC(O)CC(C)(C)N1O
inactive: [9] 102 % of control | [3] 103 % of control | [10] 97 % of control | [4] 96 % of control | [11] 94 % of control | [12] 97 % of control
